The text below walks through data of US6525059B1, “Substituted pyrazoles as p38 kinase inhibitors” (G. D. Searle & Company, priority 1998, dated 2003).

pIC50: −log10 of the molar value.

For orientation: pIC50 means −log10 of the IC50, conventionally taken in molar units.

T1 sequence (Q16539 whole entry): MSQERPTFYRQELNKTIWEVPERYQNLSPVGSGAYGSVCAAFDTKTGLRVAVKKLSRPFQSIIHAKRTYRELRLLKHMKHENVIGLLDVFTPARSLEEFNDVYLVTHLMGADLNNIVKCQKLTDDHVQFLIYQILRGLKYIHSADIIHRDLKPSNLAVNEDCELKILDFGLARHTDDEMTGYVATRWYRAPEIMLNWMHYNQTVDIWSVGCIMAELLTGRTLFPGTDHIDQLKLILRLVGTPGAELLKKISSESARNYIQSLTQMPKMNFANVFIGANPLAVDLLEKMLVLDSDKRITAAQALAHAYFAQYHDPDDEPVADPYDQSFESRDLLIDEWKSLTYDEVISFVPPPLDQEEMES

One experiment addresses T1, human p38 kinase alpha (Homo sapiens, UniProt Q16539).
T1 construct: The coding region of the human p38a cDNA was obtained by PCR-amplification from RNA isolated from the human monocyte cell line THP.1; GST (N); made in house; host or cells: E. coli DH10B
Nature of the experiment: p38 kinase in vitro assay, phosphorylation of biotinylated PHAS-I with gamma 32P-ATP. Type of experiment: biochemical. To be noted: @ 1.0 uM. As for the experimental part:
The ability of compounds to inhibit human p38 kinase alpha was evaluated using two in vitro assay methods. In the first method activated human p38 kinase alpha phosphorylates a biotinylated substrate, PHAS-I (phosphorylated heat and acid stable protein-insulin inducible), in the presence of gamma ^32P-ATP (^32P-ATP). PHAS-I was biotinylated prior to the assay and provides a means of capturing the substrate which is phosphorylated during the assay. p38 Kinase was activated by MKK6. Compounds were tested in 10 fold serial dilutions over the range of 100 μM to 0.001 μM using 1% DMSO. Each concentration of inhibitor was tested in triplicate.
All reactions were carried out in 96 well polypropylene plates. Each reaction well contained 25 mM HEPES pH 7.5, 10 mM magnesium acetate and 50 μM unlabeled ATP. […] The reaction proceeded either for one hour or overnight at 30° C.
Following incubation, 20 μl of reaction mixture was transferred to a high capacity streptavidin coated filter plate (SAM-streptavidin-matrix, Promega) prewetted with phosphate buffered saline. […] Filter plates were air dried and 20 μl of scintillant was added. The plates were sealed and counted.
Take `O=C(CCC1CC=CC1)NCc1[nH]nc(-c2ccc(F)cc2)c1-c1ccncc1` [Example B-0038]: the “P38 alpha kinase % inhib @ conc.” value is reported as 71.0% @ 1.0 uM.

`O=C(NCc1[nH]nc(-c2ccc(F)cc2)c1-c1ccncc1)C(F)(F)C(F)(F)C(F)(F)F` [Example B-0046]: the “P38 alpha kinase % inhib @ conc.” value worked out at 96.0% @ 1.0 uM.

The experiment is the same for the next values; noted with them: @ 1.0 uM; read-out: P38 alpha kinase % inhib @ conc.
Regarding `COc1ccc(C(=O)NCc2[nH]nc(-c3ccc(F)cc3)c2-c2ccncc2)c(OC)c1` [Example B-0086], the inhibition at 1 µM came out at 91%.

For `COC(=O)CC(=O)NCc1[nH]nc(-c2ccc(F)cc2)c1-c1ccncc1` [Example B-0091], the inhibition at 1 µM turned out to be 96%.

Take `COc1ccc(OC)c(S(=O)(=O)NCc2[nH]nc(-c3ccc(F)cc3)c2-c2ccncc2)c1` [Example B-0130]: the inhibition at 1 µM came out at 69%.

Turning to `C=CCNC(=O)NCc1[nH]nc(-c2ccc(F)cc2)c1-c1ccncc1` [Example B-0170], the inhibition at 1 µM was determined as 43%.

With `COc1cc(OC)cc(C(=O)NCc2[nH]nc(-c3ccc(F)cc3)c2-c2ccncc2)c1` [Example B-0072], the inhibition at 1 µM was found to be 77%.

For the compound `O=S(=O)(NCc1[nH]nc(-c2ccc(F)cc2)c1-c1ccncc1)c1ccccc1F` [Example B-0133], the inhibition at 1 µM worked out at 51%.

For `O=S(=O)(NCc1[nH]nc(-c2ccc(F)cc2)c1-c1ccncc1)c1ccc(Cl)c(Cl)c1` [Example B-0135], the inhibition at 1 µM was 78%.

The experiment is the same for the next values; noted with them: @ 10.0 uM; read-out: P38 alpha kinase % inhib @ conc.
As to `O=C(NCc1[nH]nc(-c2ccc(F)cc2)c1-c1ccncc1)Nc1ccc(Oc2ccccc2)cc1` [Example B-0155], the inhibition at 10 µM was 40%.

Take `CCCCCCCCCCS(=O)(=O)NCc1[nH]nc(-c2ccc(F)cc2)c1-c1ccncc1` [Example B-0125]: the inhibition at 10 µM turned out to be 70%.

Staying with this experiment, now noted: activated human p38 kinase alpha, PHAS-I substrate, 50 μM unlabeled ATP; read-out: p38 kinase IC50.
For `Cc1n[nH]c(-c2ccccc2O)c1-c1ccncc1` [Example A-16], the pIC50 was 5.42.

As to `COc1cc(F)cc(-c2[nH]nc(C)c2-c2ccncc2)c1` [Example A-25, 4-{5-(3-Fluoro-5-methoxyphenyl)-3-methyl-3-methyl-1H-pyrazol-4-yl}pyridine], the pIC50 was 5.59.

The same experiment, now with this note: p38α in vitro, PHAS-I assay procedure; read-out: p38^1 IC50.
As to `O=C(O)CNc1[nH]nc(-c2ccc(F)cc2)c1-c1ccncc1` [Example A-293, N-[5-(4-fluorophenyl)-4-(4-pyridinyl)-1H-pyrazol-3-yl]glycine], the pIC50 was 6.14.

On to `Fc1ccc(-c2n[nH]c(NCCN3CCOCC3)c2-c2ccncc2)cc1` [Example A-218, N-[5-(4-fluorophenyl)-4-(4-pyridinyl)-1H-pyrazol-3-yl]-4-morpholineethanamine], for which the pIC50 was 7.36.

The experiment is the same for the next values; noted with them: read-out: P38 alpha kinase IC50.
With `C[C@@H](NS(=O)(=O)c1cc(S(=O)(=O)c2ccccc2)cs1)c1[nH]nc(-c2ccc(F)cc2)c1-c1ccncc1` [Example B-0484], the pIC50 was 6.55.

Consider `C[C@@H](NS(=O)(=O)c1cc(Cl)ccc1Cl)c1[nH]nc(-c2ccc(F)cc2)c1-c1ccncc1` [Example B-0438], for which the pIC50 is more than 7.00.

Turning to `C[C@@H](NC(=O)c1ccncc1)c1[nH]nc(-c2ccc(F)cc2)c1-c1ccncc1` [Example B-0378], the pIC50 is 5.96.

Take `C[C@@H](NC(=O)c1cccc(Cl)c1)c1[nH]nc(-c2ccc(F)cc2)c1-c1ccncc1` [Example B-0525]: the pIC50 is 6.80.

Turning to `C[C@@H](NC(=O)c1cccc(C(F)(F)F)c1F)c1[nH]nc(-c2ccc(F)cc2)c1-c1ccncc1` [Example B-0510], the pIC50 is 6.16.

For `COc1cccc(C(=O)N[C@H](C)c2[nH]nc(-c3ccc(F)cc3)c2-c2ccncc2)c1` [Example B-0380], the pIC50 was 5.85.

Take `CC(NC(=O)c1ccc(F)cc1C(F)(F)F)c1[nH]nc(-c2ccc(F)cc2)c1-c1ccncc1` (centres unmarked) [Example B-0688]: the pIC50 was 6.18.

As for `CCCS(=O)(=O)N[C@H](C)c1[nH]nc(-c2ccc(F)cc2)c1-c1ccncc1` [Example B-0393], the pIC50 is 7.37.

Take `CC(NC(=O)c1cccc(C(F)(F)F)c1)c1[nH]nc(-c2ccc(F)cc2)c1-c1ccncc1` (centres unmarked) [Example B-0672]: the negative logarithm of the IC50 (pIC50) was 5.18.

On to `O=C(NCc1[nH]nc(-c2ccc(F)cc2)c1-c1ccncc1)c1cccc(F)c1F` [Example B-0293], for which the pIC50 was 6.18.

For `C[C@@H](NS(=O)(=O)c1ccc(Cl)cc1Cl)c1[nH]nc(-c2ccc(F)cc2)c1-c1ccncc1` [Example B-0448], the pIC50 was 6.40.

Regarding `O=S(=O)(NCc1[nH]nc(-c2ccc(F)cc2)c1-c1ccncc1)c1cc(Cl)ccc1Cl` [Example B-0229], the pIC50 is more than 7.00.

Regarding `C[C@@H](NC(=O)C1CC1)c1[nH]nc(-c2ccc(F)cc2)c1-c1ccncc1` [Example B-0361], the negative logarithm of the IC50 (pIC50) was 6.48.

Turning to `C[C@@H](NS(=O)(=O)c1ccc(-c2ccon2)s1)c1[nH]nc(-c2ccc(F)cc2)c1-c1ccncc1` [Example B-0485], the pIC50 is 7.40.

Regarding `Cc1cccc(C(=O)NCc2[nH]nc(-c3ccc(F)cc3)c2-c2ccncc2)c1` [Example B-0290], the negative logarithm of the IC50 (pIC50) is 6.18.

Another experiment has as its system TNF-α. Nature of the experiment: LPS stimulation of TNF production by U937 cells. The class given is cell-based, human. To be noted: @ 1.0 uM. The procedure: Fifty million cells in 100 ml media were induced to terminal monocytic differentiation by 24 hour incubation with 20 ng/ml phorbol 12-myristate 13-acetate (Sigma). The cells were washed by centrifugation (200×g for 5 min) and resuspended in 100 ml fresh medium. After 24-48 hours, the cells were harvested, centrifuged, and resuspended in culture medium at 2 million cells/ml.
Compounds were prepared as 10 mM stock solutions in DMSO and diluted in culture medium to yield a final DMSO concentration of 0.1% in the cell assay. LPS (E coli, 100 ng/ml final concentration) was then added at a volume of 0.02 ml. After 4 hour incubation at 37° C., the amount of TNF-α released in the culture medium was quantitated by ELISA. Inhibitory potency is expressed as IC50 (μM).
In vitro whole cell assay for measuring the ability of the compounds to inhibit TNF production in human U937 cells stimulated with LPS are shown in the column identified as: […]
As to `Cc1ccc(C(=O)N[C@H](C)c2[nH]nc(-c3ccc(F)cc3)c2-c2ccncc2)cc1` [Example B-0494], the “U937 Cell % inhib @ conc.” value stood at 30.0% @ 1.0 uM.

Still in this experiment, the particulars now being: @ 1.0 uM; TNF production, LPS-stimulated U937 cells.
With `Cc1noc(C)c1S(=O)(=O)NCCCc1[nH]nc(-c2ccc(F)cc2)c1-c1ccncc1` [Example B-1281], the “U937 Cell % inhib @ conc. (uM)” value was 8.0% @ 1.0 uM.

Staying with this experiment, now noted: Homo sapiens, U-937, @ 1.0 uM; read-out: U937 Cell % inhib @ conc.
In the case of `C[C@@H](NC(=O)c1ccc(F)cc1F)c1[nH]nc(-c2ccc(F)cc2)c1-c1ccncc1` [Example B-0524], the inhibition at 1 µM came out at 77%.

For the compound `Cc1noc(C)c1C(=O)NCc1[nH]nc(-c2ccc(F)cc2)c1-c1ccncc1` [Example B-0304], the inhibition at 1 µM worked out at 28%.

On to `C[C@@H](NS(=O)(=O)c1cccc(Cl)c1)c1[nH]nc(-c2ccc(F)cc2)c1-c1ccncc1` [Example B-0462], for which the inhibition at 1 µM was 97%.

Regarding `O=S(=O)(NCc1[nH]nc(-c2ccc(F)cc2)c1-c1ccncc1)c1ccc(C(F)(F)F)cc1` [Example B-0237], the inhibition at 1 µM was found to be 60%.

Turning to `O=S(=O)(NCc1[nH]nc(-c2ccc(F)cc2)c1-c1ccncc1)c1ccccc1Br` [Example B-0234], the inhibition at 1 µM is 68%.

On to `COc1ccc(NC(=O)N[C@H](C)c2[nH]nc(-c3ccc(F)cc3)c2-c2ccncc2)c(OC)c1` [Example B-0422], for which the inhibition at 1 µM turned out to be 40%.

Regarding `C[C@@H](NS(=O)(=O)/C=C/c1ccccc1)c1[nH]nc(-c2ccc(F)cc2)c1-c1ccncc1` [Example B-0388], the inhibition at 1 µM was 36%.

Regarding `Cc1cccc(Cl)c1S(=O)(=O)N[C@H](C)c1[nH]nc(-c2ccc(F)cc2)c1-c1ccncc1` [Example B-0467], the inhibition at 1 µM came out at 77%.

`C[C@@H](NS(=O)(=O)c1ccccc1Br)c1[nH]nc(-c2ccc(F)cc2)c1-c1ccncc1` [Example B-0454]: the inhibition at 1 µM amounted to 80%.

For `C[C@@H](NS(=O)(=O)c1ccccc1)c1[nH]nc(-c2ccc(F)cc2)c1-c1ccncc1` [Example B-0386], the inhibition at 1 µM is 54%.

Regarding `C[C@@H](NS(=O)(=O)Cc1ccccc1[N+](=O)[O-])c1[nH]nc(-c2ccc(F)cc2)c1-c1ccncc1` [Example B-0442], the inhibition at 1 µM is 91%.

For the compound `O=C(NCc1[nH]nc(-c2ccc(F)cc2)c1-c1ccncc1)c1cccs1` [Example B-0193], the inhibition at 1 µM is 6%.

`C[C@@H](NS(=O)(=O)c1ccc(Br)cc1)c1[nH]nc(-c2ccc(F)cc2)c1-c1ccncc1` [Example B-0432]: the inhibition at 1 µM came to 89%.

Regarding `C[C@@H](NC(=O)N(C)c1ccccc1)c1[nH]nc(-c2ccc(F)cc2)c1-c1ccncc1` [Example B-0409], the inhibition at 1 µM amounted to 30%.

In the case of `C[C@@H](NS(=O)(=O)c1ccc2ccccc2c1)c1[nH]nc(-c2ccc(F)cc2)c1-c1ccncc1` [Example B-0440], the inhibition at 1 µM is 63%.

The experiment is the same for the next values; noted with them: Homo sapiens, U-937, LPS-stimulated U937 cells; read-out: U937 Cell Assay IC50.
Turning to `Cc1ccc(-c2[nH]nc(C)c2-c2ccncc2)cc1` [Example A-5], the pIC50 was 6.56.

Still in this experiment, the particulars now being: Homo sapiens, U-937, LPS-stimulated U937 cells; read-out: U937 IC50.
Take `OCCn1ncc(-c2ccnc(NCc3ccc(F)cc3)c2)c1-c1ccc(F)cc1` [Example A-290, 5-(4-fluorophenyl)-4-[2-[[(4-fluorophenyl)methyl]amino]-4-pyridinyl]-1H-pyrazole-1-ethanol]: the pIC50 was 5.22.

The experiment is the same for the next values; noted with them: Homo sapiens, U-937, TNF production, LPS-stimulated human U937 cells; read-out: U937 Cell IC50.
`O=C(NCc1[nH]nc(-c2ccc(F)cc2)c1-c1ccncc1)c1cccs1` [Example B-0208]: the pIC50 is less than 6.00.
